Laboratory results reported in ChEMBL document CHEMBL4507311, “Data for DCP probe A-1155463” (2021).
Calls of active or inactive are those of the source. The rule behind the calls is not given here.

Experiments:
[1] = molecular target: Bcl-2-like protein 1 (Homo sapiens, UniProt Q07817); assay: Time-resolved fluorescence energy transfer (TR-FRET) with BCL2L1
[2] = molecular target: Induced myeloid leukemia cell differentiation protein Mcl-1 (Homo sapiens, UniProt Q07820); assay: Time-resolved fluorescence energy transfer (TR-FRET) with MCL1
[3] = system: MOLT-4; assay: CellTiter-Glo Luminescent Cell Viability Assay (BCL-XL dependent cell line MOLT-4); format: functional, cell-based; conditions: Homo sapiens
[4] = molecular target: Prostaglandin G/H synthase 2 (Homo sapiens) (UniProt P35354); assay: COX2(h) Eurofins-Cerep enzyme and uptake assay; conditions: Compound concentration 10.0 uM
[5] = molecular target: Angiotensin-converting enzyme (Homo sapiens) (UniProt P12821); assay: ACE (h) Eurofins-Cerep enzyme and uptake assay; conditions: Compound concentration 10.0 uM
[6] = molecular target: Acetylcholinesterase (Homo sapiens) (UniProt P22303); assay: Acetylcholinesterase (h) Eurofins-Cerep enzyme and uptake assay; conditions: Compound concentration 10.0 uM
[7] = molecular target: Adenosine receptor A1 (Homo sapiens) (UniProt P30542); assay: A1 (h) Eurofins-Cerep binding assay; set-up: ligand concentration 1 nM; conditions: filed as antagonist, Compound concentration 10.0 uM
[8] = molecular target: Adenosine receptor A3 (Homo sapiens) (UniProt P0DMS8); assay: A3 (h) Eurofins-Cerep binding assay; set-up: ligand concentration 0.15 nM; conditions: filed as agonist, Compound concentration 10.0 uM
[9] = molecular target: Beta-1 adrenergic receptor (Homo sapiens) (UniProt P08588); assay: Beta1 (h) Eurofins-Cerep binding assay; set-up: ligand concentration 0.3 nM; conditions: filed as agonist, Compound concentration 10.0 uM
[10] = molecular target: GABA-A receptor; anion channel (Rattus norvegicus) (UniProt O09028+P15431+P18506+P18508+P19969+P20236+P23574+P23576+P28471+P28473+P30191+P62813+P63079+P63138+Q91ZM7+Q9ES14); assay: BZD (central) Eurofins-Cerep binding assay; format: protein-complex assay; set-up: ligand concentration 0.4 nM; conditions: filed as agonist, Compound concentration 10.0 uM
[11] = molecular target: Translocator protein (Rattus norvegicus) (UniProt P16257); assay: BZD (peripheral) Eurofins-Cerep binding assay; set-up: ligand concentration 0.2 nM; conditions: filed as antagonist, Compound concentration 10.0 uM
[12] = molecular target: B2 bradykinin receptor (Homo sapiens) (UniProt P30411); assay: B2 (h) Eurofins-Cerep binding assay; set-up: ligand concentration 0.3 nM; conditions: filed as agonist, Compound concentration 10.0 uM
[13] = molecular target: Cannabinoid receptor 2 (Homo sapiens) (UniProt P34972); assay: CB2 (h) Eurofins-Cerep binding assay; set-up: ligand concentration 0.8 nM; conditions: filed as agonist, Compound concentration 10.0 uM
[14] = molecular target: D(1A) dopamine receptor (Homo sapiens) (UniProt P21728); assay: D1 (h) Eurofins-Cerep binding assay; set-up: ligand concentration 0.3 nM; conditions: filed as antagonist, Compound concentration 10.0 uM
[15] = molecular target: Endothelin-1 receptor (Homo sapiens) (UniProt P25101); assay: ETA (h) Eurofins-Cerep binding assay; set-up: ligand concentration 0.03 nM; conditions: filed as agonist, Compound concentration 10.0 uM
[16] = molecular target: Glutamate NMDA receptor (Rattus norvegicus) (UniProt P35439+Q00959+Q00960+Q00961+Q62645+Q8VHN2+Q9R1M7); assay: NMDA Eurofins-Cerep binding assay; format: protein-complex assay; set-up: ligand concentration 5 nM; conditions: filed as antagonist, Compound concentration 10.0 uM
[17] = molecular target: Histamine H2 receptor (Homo sapiens) (UniProt P25021); assay: H2 (h) Eurofins-Cerep binding assay; set-up: ligand concentration 0.075 nM; conditions: filed as antagonist, Compound concentration 10.0 uM
[18] = molecular target: T1, Muscarinic acetylcholine receptor M5 (Homo sapiens) (UniProt P08912); assay: M5 (h) Eurofins-Cerep binding assay; set-up: ligand concentration 0.3 nM; conditions: filed as antagonist, Compound concentration 10.0 uM
T1 sequence (whole entry): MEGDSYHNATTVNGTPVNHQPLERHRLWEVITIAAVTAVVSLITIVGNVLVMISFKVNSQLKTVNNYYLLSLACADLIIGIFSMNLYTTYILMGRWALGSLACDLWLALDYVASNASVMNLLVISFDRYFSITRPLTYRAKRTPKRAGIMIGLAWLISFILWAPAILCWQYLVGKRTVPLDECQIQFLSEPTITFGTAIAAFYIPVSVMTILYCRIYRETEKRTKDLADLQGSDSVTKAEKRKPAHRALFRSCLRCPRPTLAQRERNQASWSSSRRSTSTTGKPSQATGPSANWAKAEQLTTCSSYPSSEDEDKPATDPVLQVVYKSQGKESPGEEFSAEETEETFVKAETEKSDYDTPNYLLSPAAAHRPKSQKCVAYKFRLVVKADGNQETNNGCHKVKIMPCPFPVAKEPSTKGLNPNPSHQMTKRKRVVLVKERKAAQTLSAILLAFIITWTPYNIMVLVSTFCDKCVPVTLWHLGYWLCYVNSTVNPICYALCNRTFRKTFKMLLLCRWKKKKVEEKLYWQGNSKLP

[19] = molecular target: Substance-K receptor (Homo sapiens) (UniProt P21452); assay: NK2 (h) Eurofins-Cerep binding assay; set-up: ligand concentration 0.1 nM; conditions: filed as agonist, Compound concentration 10.0 uM
[20] = molecular target: Neuropeptide Y receptor type 1 (Homo sapiens) (UniProt P25929); assay: Y1 (h) Eurofins-Cerep binding assay; set-up: ligand concentration 0.025 nM; conditions: filed as agonist, Compound concentration 10.0 uM
[21] = molecular target: Kappa-type opioid receptor (Homo sapiens) (UniProt P41145); assay: kappa (h) (KOP) Eurofins-Cerep binding assay; set-up: ligand concentration 0.5 nM; conditions: filed as agonist, Compound concentration 10.0 uM
[22] = molecular target: Prostaglandin E2 receptor EP2 subtype (Homo sapiens) (UniProt P43116); assay: EP2 (h) Eurofins-Cerep binding assay; set-up: ligand concentration 3 nM; conditions: filed as agonist, Compound concentration 10.0 uM
[23] = molecular target: P2X receptor (Rattus norvegicus) (UniProt P51579+P49653+P51578+Q64663+P47824+P51577+P49654); assay: P2X Eurofins-Cerep binding assay; format: protein assay; set-up: ligand concentration 3 nM; conditions: filed as agonist, Compound concentration 10.0 uM
[24] = molecular target: T2, 5-hydroxytryptamine receptor 1A (Homo sapiens) (UniProt P08908); assay: 5-HT1A (h) Eurofins-Cerep binding assay; set-up: ligand concentration 0.5 nM; conditions: filed as agonist, Compound concentration 10.0 uM
T2 sequence (whole entry): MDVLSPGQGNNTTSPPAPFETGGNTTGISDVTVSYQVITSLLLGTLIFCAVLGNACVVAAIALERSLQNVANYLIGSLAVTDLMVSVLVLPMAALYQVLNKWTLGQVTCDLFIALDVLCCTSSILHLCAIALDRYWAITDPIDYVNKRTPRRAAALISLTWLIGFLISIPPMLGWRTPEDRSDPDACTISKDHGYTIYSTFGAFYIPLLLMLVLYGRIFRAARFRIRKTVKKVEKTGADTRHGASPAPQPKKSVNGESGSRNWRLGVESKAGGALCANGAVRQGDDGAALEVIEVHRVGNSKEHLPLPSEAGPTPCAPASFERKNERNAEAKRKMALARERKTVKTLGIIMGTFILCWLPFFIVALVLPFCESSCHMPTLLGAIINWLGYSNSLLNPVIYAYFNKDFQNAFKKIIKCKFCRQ

[25] = molecular target: 5-hydroxytryptamine receptor 2A (Homo sapiens) (UniProt P28223); assay: 5-HT2A (h) Eurofins-Cerep binding assay; set-up: ligand concentration 0.5 nM; conditions: filed as antagonist, Compound concentration 10.0 uM
[26] = molecular target: Sigma non-opioid intracellular receptor 1 (Homo sapiens, UniProt Q99720); assay: sigma (non-selective) (h) Eurofins-Cerep binding assay; set-up: ligand concentration 10 nM; conditions: filed as agonist, Compound concentration 10.0 uM
[27] = molecular target: Androgen receptor (Homo sapiens) (UniProt P10275); assay: AR (h) Eurofins-Cerep binding assay; set-up: ligand concentration 1 nM; conditions: filed as agonist, Compound concentration 10.0 uM
[28] = molecular target: L-type Ca2+ channel (diltiazem site, benzothiazepines) (Rattus norvegicus, UniProt P22002+P27732+Q02485); assay: Ca2+ channel (L, diltiazem site) (benzothiazepines) Eurofins-Cerep binding assay; format: protein assay; set-up: incubation time 120 min, incubation temperature RT, ligand concentration 15 nM; conditions: rat cerebral cortex, probe [3H]diltiazem (15 nM), compound concentration 10 uM, read-out: % Inhibition of Control Specific Binding (Mean n=2)
[29] = molecular target: Sodium-dependent dopamine transporter (Homo sapiens) (UniProt Q01959); assay: dopamine transporter (h) Eurofins-Cerep binding assay; set-up: ligand concentration 4 nM; conditions: filed as antagonist, Compound concentration 10.0 uM
[30] = molecular target: Sodium- and chloride-dependent GABA transporter 1 (Rattus norvegicus) (UniProt P23978); assay: GABA transporter Eurofins-Cerep binding assay; set-up: ligand concentration 10 nM; conditions: filed as antagonist, Compound concentration 10.0 uM
[31] = molecular target: Sodium-dependent serotonin transporter (Homo sapiens) (UniProt P31645); assay: 5-HT transporter (h) Eurofins-Cerep binding assay; set-up: ligand concentration 2 nM; conditions: filed as antagonist, Compound concentration 10.0 uM

Chain of Adenosine receptor A1 (Homo sapiens) (P30542 whole entry): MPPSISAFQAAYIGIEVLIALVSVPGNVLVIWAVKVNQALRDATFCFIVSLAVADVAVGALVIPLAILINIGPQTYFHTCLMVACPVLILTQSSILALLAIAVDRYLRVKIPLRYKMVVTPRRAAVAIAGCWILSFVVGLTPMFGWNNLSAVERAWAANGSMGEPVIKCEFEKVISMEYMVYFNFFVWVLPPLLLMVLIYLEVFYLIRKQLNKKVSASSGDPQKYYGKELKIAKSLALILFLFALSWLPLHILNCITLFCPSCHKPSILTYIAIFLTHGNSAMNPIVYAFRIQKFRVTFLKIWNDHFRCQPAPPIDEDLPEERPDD
Chain of Induced myeloid leukemia cell differentiation protein Mcl-1 (Q07820 whole entry): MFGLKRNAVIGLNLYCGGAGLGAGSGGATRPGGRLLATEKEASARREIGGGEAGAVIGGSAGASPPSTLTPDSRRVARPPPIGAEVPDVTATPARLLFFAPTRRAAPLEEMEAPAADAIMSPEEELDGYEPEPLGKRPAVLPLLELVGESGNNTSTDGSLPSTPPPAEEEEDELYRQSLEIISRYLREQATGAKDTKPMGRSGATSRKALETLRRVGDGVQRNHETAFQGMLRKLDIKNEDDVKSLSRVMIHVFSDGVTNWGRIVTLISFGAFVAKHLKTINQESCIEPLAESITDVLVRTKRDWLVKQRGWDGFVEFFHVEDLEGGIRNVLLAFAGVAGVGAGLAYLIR
Chain of Bcl-2-like protein 1 (Q07817 whole entry): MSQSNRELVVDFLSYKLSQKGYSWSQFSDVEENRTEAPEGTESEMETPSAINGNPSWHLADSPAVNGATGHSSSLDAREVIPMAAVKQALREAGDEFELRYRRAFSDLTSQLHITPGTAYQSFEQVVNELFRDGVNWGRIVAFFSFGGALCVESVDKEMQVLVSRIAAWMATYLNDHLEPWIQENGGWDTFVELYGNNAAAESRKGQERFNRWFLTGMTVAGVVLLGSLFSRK
Chain of Adenosine receptor A3 (Homo sapiens) (P0DMS8 whole entry): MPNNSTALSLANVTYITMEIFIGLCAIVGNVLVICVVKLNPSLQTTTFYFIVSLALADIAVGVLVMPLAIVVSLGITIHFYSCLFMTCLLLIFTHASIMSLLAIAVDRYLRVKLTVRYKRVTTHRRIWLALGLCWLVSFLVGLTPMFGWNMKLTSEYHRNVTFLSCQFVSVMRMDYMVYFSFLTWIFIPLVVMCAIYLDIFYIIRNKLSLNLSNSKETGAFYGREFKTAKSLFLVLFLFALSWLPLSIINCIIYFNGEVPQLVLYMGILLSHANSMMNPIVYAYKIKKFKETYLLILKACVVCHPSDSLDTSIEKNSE
Chain of Substance-K receptor (Homo sapiens) (P21452 whole entry): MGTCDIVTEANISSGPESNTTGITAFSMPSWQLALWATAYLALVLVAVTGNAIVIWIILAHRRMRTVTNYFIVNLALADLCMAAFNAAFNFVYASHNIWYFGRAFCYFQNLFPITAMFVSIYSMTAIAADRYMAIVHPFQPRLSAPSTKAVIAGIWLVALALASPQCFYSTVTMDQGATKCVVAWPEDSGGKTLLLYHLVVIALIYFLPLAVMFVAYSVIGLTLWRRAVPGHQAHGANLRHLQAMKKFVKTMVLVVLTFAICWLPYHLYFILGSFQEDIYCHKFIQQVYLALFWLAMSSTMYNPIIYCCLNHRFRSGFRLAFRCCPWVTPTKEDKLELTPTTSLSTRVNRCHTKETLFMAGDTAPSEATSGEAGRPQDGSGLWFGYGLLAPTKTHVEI
Chain of Endothelin-1 receptor (Homo sapiens) (P25101 whole entry): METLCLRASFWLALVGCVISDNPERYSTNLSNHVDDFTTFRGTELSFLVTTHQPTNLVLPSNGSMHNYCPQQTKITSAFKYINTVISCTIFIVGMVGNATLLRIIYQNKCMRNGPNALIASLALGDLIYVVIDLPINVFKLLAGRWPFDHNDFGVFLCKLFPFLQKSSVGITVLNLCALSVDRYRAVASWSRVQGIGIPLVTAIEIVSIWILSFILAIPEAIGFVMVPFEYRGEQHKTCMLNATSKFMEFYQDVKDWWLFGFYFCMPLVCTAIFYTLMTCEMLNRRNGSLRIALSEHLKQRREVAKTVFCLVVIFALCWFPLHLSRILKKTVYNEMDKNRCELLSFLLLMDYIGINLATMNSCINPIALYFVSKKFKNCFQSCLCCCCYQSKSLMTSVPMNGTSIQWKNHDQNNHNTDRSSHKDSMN
Chain of Sodium-dependent dopamine transporter (Homo sapiens) (Q01959 whole entry): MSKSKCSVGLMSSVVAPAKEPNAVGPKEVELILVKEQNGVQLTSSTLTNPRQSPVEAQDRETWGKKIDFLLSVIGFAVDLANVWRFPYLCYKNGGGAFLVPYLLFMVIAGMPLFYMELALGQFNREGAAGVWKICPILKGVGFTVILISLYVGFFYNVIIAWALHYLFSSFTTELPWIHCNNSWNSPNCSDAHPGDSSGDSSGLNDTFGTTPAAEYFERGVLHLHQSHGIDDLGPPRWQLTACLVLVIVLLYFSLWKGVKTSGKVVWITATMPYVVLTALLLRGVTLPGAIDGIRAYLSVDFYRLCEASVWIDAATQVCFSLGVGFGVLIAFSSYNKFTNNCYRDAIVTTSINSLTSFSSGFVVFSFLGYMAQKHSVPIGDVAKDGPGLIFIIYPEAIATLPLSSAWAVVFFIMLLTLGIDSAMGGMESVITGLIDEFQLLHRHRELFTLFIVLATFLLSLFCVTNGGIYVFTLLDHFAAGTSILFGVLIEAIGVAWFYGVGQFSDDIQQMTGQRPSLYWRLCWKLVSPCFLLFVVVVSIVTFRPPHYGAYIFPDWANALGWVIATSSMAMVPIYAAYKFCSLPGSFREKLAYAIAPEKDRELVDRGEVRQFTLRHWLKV
Chain of D(1A) dopamine receptor (Homo sapiens) (P21728 whole entry): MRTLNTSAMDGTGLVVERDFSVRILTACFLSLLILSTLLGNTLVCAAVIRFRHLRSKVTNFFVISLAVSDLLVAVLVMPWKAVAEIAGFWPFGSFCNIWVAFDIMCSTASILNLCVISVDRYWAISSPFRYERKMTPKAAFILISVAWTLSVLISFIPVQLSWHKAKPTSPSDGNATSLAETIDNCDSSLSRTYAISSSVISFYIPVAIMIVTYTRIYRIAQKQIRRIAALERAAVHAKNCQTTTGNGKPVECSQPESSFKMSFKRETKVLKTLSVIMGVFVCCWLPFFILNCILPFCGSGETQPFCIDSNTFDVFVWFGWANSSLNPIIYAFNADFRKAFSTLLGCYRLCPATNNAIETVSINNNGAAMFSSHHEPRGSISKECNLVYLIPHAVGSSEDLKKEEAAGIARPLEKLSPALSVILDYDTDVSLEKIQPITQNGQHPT
Chain of Histamine H2 receptor (Homo sapiens) (P25021 whole entry): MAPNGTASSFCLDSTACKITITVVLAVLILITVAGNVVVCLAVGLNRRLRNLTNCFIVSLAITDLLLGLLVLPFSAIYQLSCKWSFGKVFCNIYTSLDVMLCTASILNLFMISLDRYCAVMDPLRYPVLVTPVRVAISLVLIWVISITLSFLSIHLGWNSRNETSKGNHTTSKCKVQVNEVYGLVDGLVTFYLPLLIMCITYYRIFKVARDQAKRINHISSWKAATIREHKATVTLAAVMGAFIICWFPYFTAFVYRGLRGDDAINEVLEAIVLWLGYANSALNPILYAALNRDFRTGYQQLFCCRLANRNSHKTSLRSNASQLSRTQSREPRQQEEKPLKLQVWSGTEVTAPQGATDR
Chain of 5-hydroxytryptamine receptor 2A (Homo sapiens) (P28223 whole entry): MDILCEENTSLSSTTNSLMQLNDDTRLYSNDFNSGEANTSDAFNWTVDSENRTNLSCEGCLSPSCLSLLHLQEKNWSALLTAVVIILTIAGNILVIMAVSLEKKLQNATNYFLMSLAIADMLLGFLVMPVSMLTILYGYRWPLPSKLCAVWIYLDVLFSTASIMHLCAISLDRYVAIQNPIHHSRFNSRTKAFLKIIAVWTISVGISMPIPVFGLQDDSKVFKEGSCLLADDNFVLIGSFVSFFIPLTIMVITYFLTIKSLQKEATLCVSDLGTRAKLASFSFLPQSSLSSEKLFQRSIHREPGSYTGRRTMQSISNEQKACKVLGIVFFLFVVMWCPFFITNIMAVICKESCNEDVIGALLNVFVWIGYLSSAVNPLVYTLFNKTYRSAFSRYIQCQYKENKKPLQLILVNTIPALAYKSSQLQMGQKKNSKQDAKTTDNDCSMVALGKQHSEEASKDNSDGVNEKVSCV
Chain of Neuropeptide Y receptor type 1 (Homo sapiens) (P25929 whole entry): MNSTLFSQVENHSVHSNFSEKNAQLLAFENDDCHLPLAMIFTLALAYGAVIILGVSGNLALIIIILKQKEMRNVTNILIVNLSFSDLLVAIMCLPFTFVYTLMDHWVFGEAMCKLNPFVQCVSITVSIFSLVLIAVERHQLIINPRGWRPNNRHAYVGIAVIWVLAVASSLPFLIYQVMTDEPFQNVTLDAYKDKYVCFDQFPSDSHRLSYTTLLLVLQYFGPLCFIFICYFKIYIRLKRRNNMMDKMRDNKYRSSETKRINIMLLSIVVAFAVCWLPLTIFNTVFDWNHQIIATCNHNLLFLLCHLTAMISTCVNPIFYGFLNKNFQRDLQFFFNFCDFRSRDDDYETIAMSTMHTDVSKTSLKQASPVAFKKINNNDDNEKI

Row | Compound | IC50 [1] | IC50 [2] | EC50 [3] | % Inhibition of Control Values (Mean n=2) [4] | % Inhibition of Control Values (Mean n=2) [5] | % Inhibition of Control Values (Mean n=2) [6] | % Inhibition of Control Specific Binding (Mean n=2) [7] | % Inhibition of Control Specific Binding (Mean n=2) [8] | % Inhibition of Control Specific Binding (Mean n=2) [9] | % Inhibition of Control Specific Binding (Mean n=2) [10] | % Inhibition of Control Specific Binding (Mean n=2) [11] | % Inhibition of Control Specific Binding (Mean n=2) [12] | % Inhibition of Control Specific Binding (Mean n=2) [13] | % Inhibition of Control Specific Binding (Mean n=2) [14] | % Inhibition of Control Specific Binding (Mean n=2) [15] | % Inhibition of Control Specific Binding (Mean n=2) [16] | % Inhibition of Control Specific Binding (Mean n=2) [17] | % Inhibition of Control Specific Binding (Mean n=2) [18] | % Inhibition of Control Specific Binding (Mean n=2) [19] | % Inhibition of Control Specific Binding (Mean n=2) [20] | further results
1 | CN(C)CC#Cc1ccc(OCCCc2sc(N3CCc4cccc(C(=O)Nc5nc6ccccc6s5)c4C3)nc2C(=O)O)c(F)c1 [A-1155463] | 0.00055 µM (active) | 14 µM (not active) | 0.214 µM (active) | 62.2% | 22.1% | 7.1% | 60.6% | 71.6% | 1.4% | 18.1% | 41.3% | -7% | 4.1% | 26.2% | -2.2% | 21.6% | -11.6% | 10.3% | 25.6% | 12.5% | % Inhibition of Control Specific Binding (Mean n=2) [21]: 34.4%; % Inhibition of Control Specific Binding (Mean n=2) [22]: 33.8%; % Inhibition of Control Specific Binding (Mean n=2) [23]: 13.5%; % Inhibition of Control Specific Binding (Mean n=2) [24]: 32.2%; % Inhibition of Control Specific Binding (Mean n=2) [25]: 44.3%; % Inhibition of Control Specific Binding (Mean n=2) [26]: 57.8%; % Inhibition of Control Specific Binding (Mean n=2) [27]: -1.8%; inhibition at 120 min, 10 µM [28]: 10.8%; % Inhibition of Control Specific Binding (Mean n=2) [29]: 31.6%; % Inhibition of Control Specific Binding (Mean n=2) [30]: 17.3%; % Inhibition of Control Specific Binding (Mean n=2) [31]: 8.5%
2 | O=C(Nc1nc2ccccc2s1)c1cccc2c1CN(c1nc(C(=O)O)c(CCOc3ccc(-n4ncc5cncnc54)cc3)s1)CC2 [A-1107969] | 0.27 µM (not active) | 2 µM (not active) | > 10 µM (not active) | 65.5% | -17% | 14.5% | 7.9% | 54% | -0.4% | 17.3% | 77.2% | -20.2% | -9.9% | 3.5% | -5.1% | 7.8% | -11% | 8.8% | 5.3% | -0.4% | % Inhibition of Control Specific Binding (Mean n=2) [21]: 17%; % Inhibition of Control Specific Binding (Mean n=2) [22]: 60.3%; % Inhibition of Control Specific Binding (Mean n=2) [23]: -0.4%; % Inhibition of Control Specific Binding (Mean n=2) [24]: -1%; % Inhibition of Control Specific Binding (Mean n=2) [25]: -0.6%; % Inhibition of Control Specific Binding (Mean n=2) [26]: -47.8%; % Inhibition of Control Specific Binding (Mean n=2) [27]: -12.1%; inhibition at 120 min, 10 µM [28]: 16.2%; % Inhibition of Control Specific Binding (Mean n=2) [29]: 3.6%; % Inhibition of Control Specific Binding (Mean n=2) [30]: -1.5%; % Inhibition of Control Specific Binding (Mean n=2) [31]: -2.3%
